Data: patent US7473683B2, “Nonpolar thymidine analogs” (The Board of Trustees of the Leland Stanford Junior …, priority 2005, dated 2009)

Key:
[1] = tested on: self-complementary strands (5′-XCGCGCG); test: dangling end thermal denaturation studies (base stacking) with self-complementary strands; format: physicochemical; settings: for ΔG°37 (van't Hoff) / ΔH° (van't Hoff) / ΔS° (van't Hoff) / ΔΔG° stacking per base / Tm / ΔG°37 (fits) / ΔTm: dangling residue X in 5′-XCGCGCG; for Tm: 5.0 μM DNA strand, 1M NaCl, 10 mM phosphate buffer (pH 7.0), 0.1 mM EDTA, 280 nm; for ΔG°37 (fits): curve fits; for ΔTm: versus duplex with no dangling residue
Protocol: Thermal Denaturation Studies. After the samples were prepared in melting buffer (1M NaCl, 10 mM phosphate buffer (pH 7.0) with 0.1 mM EDTA), they were heated to 95° C. and allowed to slowly cool at a rate of 1° C./min to 5° C. The melting studies were carried out in Teflon-stoppered 1 cm path length quartz cells on a Varian Cary 1 UV-vis spectophotometer equipped with thermoprogrammer. Absorbance was monitored at 280 nm for stacking and at 260 nm for base pairing. […] The data were analyzed by the melt curve processing program, MeltWin v. 3.0. Melting temperatures (Tm) were determined by computer-fit of the first derivative of absorbance with respect to 1/T. Uncertainty in Tm is estimated at ±0.5° C. based on repetitions of experiments. Free-energy values were derived by two methods: (1) computer-fitting the denaturation data with an algorithm employing linear sloping baselines, using the two-state approximation for melting. Fits were excellent, with χ^−2 values of 10^−6 or better. (2) Van't Hoff thermodynamic parameters were derived from linear plots of 1/Tm vs In[CT] by measuring Tm as a function of concentration.
Sequence Design. We incorporated all five phosphoramidites into three new sequence contexts each for further study of pairing and stacking properties. The first is a self-complementary sequence designed to form a hexamer duplex, with the nonnatural base analogue overhanging (dangling) at the 5′ ends (Table 2). This same sequence context has been used previously in several studies of DNA base stacking. The second and third contexts comprise a pair of 12mer sequences that form duplexes with well-behaved two-state behavior. One strand is pyrimidine-rich, while the other is purine-rich; we substituted each analogue at a central position of each strand to test two widely varied sequence contexts for pairing effects.
Base Stacking. DNA base stacking stability has been correlated with the size of compounds when mono-, bi-, tri-, and tetra-cyclic base analogues were compared. To test this with the present series, which varies in size by a smaller amount, we examined the short self-complementary oligonucleotides by thermal denaturation experiments. The self-complementary duplexes contained the modified nucleosides as a 5′ overhanging base.

[2] = tested on: DNA Pol I (Klenow fragment, exo-); test: steady-state kinetics of single nucleotide insertions, thymidine analogues in the template; format: biochemical, E. coli; parameters: efficiency: unit not given here; settings: for rel. efficiency: relative to insertion of dATP opposite T
Protocol: In vitro steady-state kinetics. As polymerase substrates we used 28 mer/23 mer template-primer duplexes having the sequence (5′-ACT GXT CTCCCTATAGTGAGTCGTATTA [SEQ ID NO:1])·(5′-TAATACGACTCACTATAGGGAGA [SEQ ID NO:2]). Kinetics were measured at 37° C. in a buffer containing 10 mM Mg^2+. The primer was 5′ end-labeled and was extended by the polymerase in the presence of a single dNTP species over varied concentration and time. Products of single nucleotide insertions were resolved from unreacted primer by 20% denaturing gel electrophoresis, and were quantitated by autoradiography. Details of the kinetics experiments are given in the Supporting Data.
We chose DNA polymerase I (Klenow fragment, exonuclease-deficient) as an ideal candidate for initial study, as it is enzymatically well-characterized among replicative enzymes, and yet is relatively small and acts as a single subunit. We carried out kinetics studies of single nucleotide insertions in the steady state, using a gel electrophoresis-based assay.
Data for single nucleotide insertion kinetics in the steady-state. The enzyme was the Klenow fragment of DNA pol I from E. coli (exonuclease deficient). Methods are as described above.

[3] = tested on: normal and bypass (SOS-induced) polymerases in E. coli; test: bacterial replication assay: bypass efficiency and fidelity of analogs in single-stranded M13 vector passaged through E. coli; format: cell-based; settings: for difference between the match and mismatch efficiency, increase in cells expressing induced bypass polymerases: SOS-induced bypass polymerases
Description: Bacterial replication assay. The assay for bypass efficiency fidelity is briefly described in the text.
To ascertain the influence of sub-Angstrom size increases on the template coding properties of the T analogs in vivo, we ligated oligonucleotides containing each analog into a single-stranded M13 vector, which were then passaged through E. coli and scored for bypass efficiency and mutagenesis (fidelity) as described. We chose E. coli deficient in AlkB to eliminate the possibility of metabolization of the H analog, which was subsequently found to have no influence on the results when compared with AlkB-proficient cells. Bypass experiments shown in FIG. 7 were performed in a competitive manner, and efficiencies were evaluated by PCR-based quantitation of successfully replicated progeny DNA. SOS-induction of bypass polymerases by prior irradiation of E. coli with ultraviolet light increased trans-analog synthesis approximately 2-fold for all thymine analogs. […] It is noteworthy that the difference between the match and mismatch efficiency increased in cells expressing induced bypass polymerases: L (0.2), B (8.0), I (17.4), implying higher fidelity for the larger isosteres for bypass polymerases, which may contain larger or looser active sites.

[4] = Example 4: incorporating dATP opposite template thymidine analog
[5] = insertion of dATP opposite template base, 37° C.
[6] = insertion of dATP opposite template base, 37° C., 10 mM MgCl2, pH 7.5, normalized to lowest enzyme concentration
[7] = insertion of dATP opposite template base
[8] = insertion of dCTP opposite template base, 37° C.
[9] = insertion of dCTP opposite template base, 37° C., 10 mM MgCl2, pH 7.5, normalized to lowest enzyme concentration
[10] = insertion of dCTP opposite template base
[11] = insertion of dGTP opposite template base, 37° C., 10 mM MgCl2, pH 7.5, normalized to lowest enzyme concentration
[12] = insertion of dGTP opposite template base
[13] = insertion of dTTP opposite template base, 37° C.
[14] = insertion of dTTP opposite template base, 37° C., 10 mM MgCl2, pH 7.5, normalized to lowest enzyme concentration
[15] = insertion of dTTP opposite template base
[16] = insertion of dGTP opposite template base, 37° C.

Compound	ΔG°37 (van't Hoff) [1]	ΔH° (van't Hoff) [1]	ΔS° (van't Hoff) [1]	ΔΔG° stacking per base [1]	Tm [1]	ΔG°37 (fits) [1]	ΔTm [1]	Km [2, 5]	Vmax [2, 6]	rel. efficiency [2, 7]	Km [2, 8]	Vmax [2, 9]	rel. efficiency [2, 10]	Vmax [2, 11]	rel. efficiency [2, 12]	Km [2, 13]	Vmax [2, 14]	rel. efficiency [2, 15]	Km [2, 16]	difference between the match and mismatch efficiency, increase in cells expressing induced bypass polymerases ([3]; E. coli)	other results
Cc1c[nH]c(=O)[nH]c1=O [T, thymine, reference compound]	-9.1 ± 0.1 kcal/mol	-54.4 ± 4.1 kcal/mol	−146 ± 13 cal/K · mol	0.65 kcal/mol	46.0 °C	-9.1 ± 0.1 kcal/mol	7.4 °C	1.9 ± 0.5 µM	24 ± 1 % · m in^−1	1	46 ± 28 µM	0.022 ± 0.006 % · m in^−1	3.7 × 10^−5	0.41 ± 0.15 % · m in^−1	5.6 × 10^−4	38 ± 38 µM	0.012 ± 0.004 % · m in^−1	2.5 × 10^−5	–	–	Km [2, 4]: 2.6 ± 0.75 µM; Vmax [2, 4]: 45.7931 ± 1.7743; efficiency [2, 4]: (1.86 ± 0.56) × 10^7; Rel. efficiency ([2]; Example 4: incorporating dATP opposite template thymidine analog, T template = 1): 1
2,4-diHydrogentoluene	-9.7 ± 0.1 kcal/mol	-55.4 ± 2.0 kcal/mol	−147 ± 6 cal/K · mol	0.95 kcal/mol	49.7 °C	-9.7 ± 0.0 kcal/mol	11.1 °C	20 ± 2 µM	0.90 ± 0.18 % · m in^−1	3.5 × 10^−3	100 ± 60 µM	0.031 ± 0.006 % · m in^−1	2.4 × 10^−5	0.025 ± 0.007 % · m in^−1	3.2 × 10^−6	61 ± 37 µM	0.062 ± 0.022 % · m in^−1	7.7 × 10^−5	600 ± 210 µM	–	stabilization of the duplex by 5′ overhanging base (stacking) ([1]; compared with natural thymidine in the same position): least stabilizing of the series; single-base deletions ([3]; E. coli, diminished when bypass polymerases were induced): evident
Cc1ccc(Br)cc1Br [B, 2,4-dibromotoluene]	-10.8 ± 0.1 kcal/mol	-62.0 ± 2.1 kcal/mol	−165 ± 7 cal/K · mol	1.50 kcal/mol	54.3 °C	-10.2 ± 0.0 kcal/mol	15.7 °C	21 ± 5 µM	12 ± 1 % · m in^−1	4.4 × 10^−2	79 ± 33 µM	0.038 ± 0.005 % · m in^−1	3.7 × 10^−5	0.023 ± 0.005 % · m in^−1	7.7 × 10^−6	37 ± 12 µM	0.20 ± 0.03 % · m in^−1	4.2 × 10^−4	220 ± 100 µM	8.0	–
difluorotoluene [reference compound]	-10.1 ± 0.0 kcal/mol	-54.5 ± 0.9 kcal/mol	−143 ± 3 cal/K · mol	1.15 kcal/mol	52.4 °C	-10.1 ± 0.0 kcal/mol	13.8 °C	9.4 ± 2.9 µM	24 ± 3 % · m in^−1	2.0 × 10^−1	33 ± 11 µM	0.071 ± 0.011 % · m in^−1	1.7 × 10^−4	0.0071 ± 0.0008 % · m in^−1	1.5 × 10^−5	22 ± 13 µM	0.12 ± 0.03 % · m in^−1	4.2 × 10^−4	36 ± 12 µM	–	–
Cc1ccc(Cl)cc1Cl [L, 2,4-dichlorotoluene]	-10.0 ± 0.1 kcal/mol	-52.7 ± 1.2 kcal/mol	−138 ± 4 cal/K · mol	1.10 kcal/mol	52.3 °C	-10.1 ± 0.0 kcal/mol	13.7 °C	3.3 ± 2.8 µM	27 ± 5 % · m in^−1	6.3 × 10^−1	25 ± 13 µM	0.021 ± 0.003 % · m in^−1	6.5 × 10^−5	0.029 ± 0.007 % · m in^−1	1.2 × 10^−5	18 ± 18 µM	0.13 ± 0.04 % · m in^−1	5.5 × 10^−4	190 ± 90 µM	0.2	replication bypass efficiency ([3]; E. coli, normal and bypass polymerases, competitive, PCR-based quantitation of progeny DNA): maximum bypass; replication fidelity in E. coli ([3]; normal and bypass polymerases): maximal in vivo fidelity
